Results published in patent publication US7544806B2, “Piperidine-substituted indoles-or heteroderivatives thereof” (Boehringer Ingelheim International GmbH, priority 2003, dated 2009).

melting point: 179 to 181 °C
Compound: CCOC(=O)c1cccc(SCCCN2CCC(n3c(CC)cc4cc(F)ccc43)CC2)c1 [Example 36, 3-{3-[4-(2-Ethyl-5-fluoro-indol-1-yl)-piperidin-1-yl]propylsulfanyl}-benzoic acid ethyl ester]
